In PubChem BioAssay AID330 (DTP/NCI, 2004):
“And” between values parts separate entries of the source, which are not always exact repeats. Equal entries are not always repeated. Toxic doses and inconclusive results are not listed.

Tested on: P388 leukemia ip, CD2F1 mice, survival T/C
Assay: NCI In Vivo Anticancer Drug Screen. Data for tumor model P388 Leukemia (intraperitoneal) in CD2F1 (CDF1) mice
Settings: endpoint: median survival time, higher = longer survival
Summary of the method: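 Mice carrying the transplanted tumor received test compound or vehicle. Survival was recorded in each group, and the value is the treated-group measurement divided by that of the vehicle-treated control group.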

[1] = dose: 25.0 mg/kg/injection, schedule: Q01DX009 (ip), vehicle: saline with Tween-80
[2] = dose: 50.0 mg/kg/injection, schedule: Q01DX009 (ip), vehicle: saline with Tween-80

COc1cccc2c1C(=O)c1c(O)c3c(c(O)c1C2=O)C[C@@](O)(C(C)O)C[C@@H]3OC1CC(N2CCOCC2C#N)C(O)C(C)O1 (some centres not stated)
T/C (dose: 0.03 mg/kg/injection, schedule: Q04DX003 (ip), vehicle: water): 120 % of control | T/C (dose: 0.1 mg/kg/injection, schedule: Q04DX003 (ip), vehicle: water): 166 % of control | T/C (dose: 12.5 micrograms/kg/injection, schedule: Q04DX003 (ip), vehicle: water): 107 % of control | T/C (dose: 25.0 micrograms/kg/injection, schedule: Q04DX003 (ip), vehicle: water): 101 % of control | T/C (dose: 50.0 micrograms/kg/injection, schedule: Q04DX003 (ip), vehicle: water): 106 % of control | T/C (dose: 100.0 micrograms/kg/injection, schedule: Q04DX003 (ip), vehicle: water): 120 % of control

COc1ccc(S(=O)(=O)c2coc3ccc(C)cc3c2=O)cc1
T/C (dose: 60.0 mg/kg/injection, schedule: Q01DX005 (ip), vehicle: saline with Tween-80): 100 % of control | T/C (dose: 120.0 mg/kg/injection, schedule: Q01DX005 (ip), vehicle: saline with Tween-80): 96 % of control | T/C (dose: 240.0 mg/kg/injection, schedule: Q01DX005 (ip), vehicle: saline with Tween-80): 95 % of control

COc1ccc(C2CC(=O)N(CCCl)C(=O)C2)cc1
T/C (dose: 100.0 mg/kg/injection, schedule: Q01DX001 (ip), vehicle: suspension in saline): 102 % of control | T/C (dose: 200.0 mg/kg/injection, schedule: Q01DX001 (ip), vehicle: suspension in saline): 103 % of control | T/C (dose: 400.0 mg/kg/injection, schedule: Q01DX001 (ip), vehicle: suspension in saline): 100 % of control

[Cl][Pt+2][Cl].[NH-]c1ccc(C(=O)O)cc1[NH-]
T/C (dose: 6.25 mg/kg/injection, schedule: Q04DX002 (ip), vehicle: saline with Tween-80): 100 % of control | T/C (dose: 12.5 mg/kg/injection, schedule: Q04DX002 (ip), vehicle: saline with Tween-80): 102 % of control | T/C (dose: 25.0 mg/kg/injection, schedule: Q04DX002 (ip), vehicle: saline with Tween-80): 100 % of control | T/C (dose: 50.0 mg/kg/injection, schedule: Q04DX002 (ip), vehicle: saline with Tween-80): 110 % of control | T/C (dose: 100.0 mg/kg/injection, schedule: Q04DX002 (ip), vehicle: saline with Tween-80): 120 % of control

N=c1nc(-c2ccccc2)nc2[nH]c3c4cccc5cccc(c3nc12)c54
T/C (dose: 50.0 mg/kg/injection, schedule: Q01DX005 (ip), vehicle: Klucel + Tween-80): 90 % of control | T/C (dose: 100.0 mg/kg/injection, schedule: Q01DX005 (ip), vehicle: Klucel + Tween-80): 99 % of control | T/C (dose: 200.0 mg/kg/injection, schedule: Q01DX005 (ip), vehicle: Klucel + Tween-80): 99 % of control

O=C(Cc1ccccc1)c1ccc(C(F)(F)F)cc1
T/C (dose: 12.5 mg/kg/injection, schedule: Q01DX009 (ip), vehicle: Klucel (hydroxypropylcellulose) (HPC)): 104 % of control | T/C (dose: 25.0 mg/kg/injection, schedule: Q01DX009 (ip), vehicle: Klucel (hydroxypropylcellulose) (HPC)): 95 % of control | T/C (dose: 50.0 mg/kg/injection, schedule: Q01DX009 (ip), vehicle: Klucel (hydroxypropylcellulose) (HPC)): 104 % of control and 87 % of control

COC(=O)c1cc(OC)cc(C)c1OC(=Nc1cccc(Cl)c1C)c1ccccc1
T/C (dose: 50.0 mg/kg/injection, schedule: Q01DX005 (ip), vehicle: Klucel (hydroxypropylcellulose) (HPC)): 97 % of control | T/C (dose: 100.0 mg/kg/injection, schedule: Q01DX005 (ip), vehicle: Klucel (hydroxypropylcellulose) (HPC)): 92 % of control | T/C (dose: 200.0 mg/kg/injection, schedule: Q01DX005 (ip), vehicle: Klucel (hydroxypropylcellulose) (HPC)): 96 % of control

Clc1ccc(C=NCCN=Cc2ccc(Cl)c(Cl)c2)cc1Cl
T/C (dose: 100.0 mg/kg/injection, schedule: Q04DX003 (ip), vehicle: saline with Tween-80): 90 % of control | T/C (dose: 200.0 mg/kg/injection, schedule: Q04DX003 (ip), vehicle: saline with Tween-80): 95 % of control | T/C (dose: 400.0 mg/kg/injection, schedule: Q04DX003 (ip), vehicle: saline with Tween-80): 90 % of control

C/C=C/N=NNc1ccc(OC)cc1
T/C (dose: 100.0 mg/kg/injection, schedule: Q04DX003 (ip), vehicle: saline + Tween-80 + alcohol): 105 % of control | T/C (dose: 200.0 mg/kg/injection, schedule: Q04DX003 (ip), vehicle: saline + Tween-80 + alcohol): 99 % of control

Cc1cccc(Nc2ccccc2C(=O)O)c1C
T/C (dose: 6.25 mg/kg/injection, schedule: Q01DX009 (ip), vehicle: saline with Tween-80): 103 % of control | T/C (dose: 12.5 mg/kg/injection, schedule: Q01DX009 (ip), vehicle: saline with Tween-80): 98 % of control | T/C [1]: 111 % of control | T/C [2]: 101 % of control

O=c1c(Br)c(Cl)nc2ccccn12
T/C (dose: 100.0 mg/kg/injection, schedule: Q01DX001 (ip), vehicle: saline with Tween-80): 90 % of control | T/C (dose: 200.0 mg/kg/injection, schedule: Q01DX001 (ip), vehicle: saline with Tween-80): 100 % of control | T/C (dose: 400.0 mg/kg/injection, schedule: Q01DX001 (ip), vehicle: saline with Tween-80): 95 % of control

Cc1cc(C)c(S(=O)(=O)NN)c(C)c1
T/C [1]: 104 % of control | T/C [2]: 104 % of control | T/C (dose: 100.0 mg/kg/injection, schedule: Q01DX009 (ip), vehicle: saline with Tween-80): 100 % of control | T/C (dose: 200.0 mg/kg/injection, schedule: Q01DX009 (ip), vehicle: saline with Tween-80): 95 % of control
